Test system: enzymes which degrade the neuropeptide neurotensin
Assay: pharmacological activity of stereoisomers/racemates (test not specified)
Format: biochemical
Details: result in words; comparison of enantiomers or diastereomeric racemates
Description: The invention relates to a group of new 2,3-diaryl-pyrazolidine derivatives having inhibiting activity on enzymes which degrade the neuropeptide neurotensin.
The compounds according to the invention are active in inhibiting the abovementioned enzymes in the range of 5.0–8.0 (plC50 values), when tested according to the methods described in Biochem. J. 280, 421–426, and Eur. J. Biochem. 202, 269–276.

pharmacological activity (active / inactive racemate, eutomer): eutomer
SMILES: O=C(NCC(=O)N1CCC(c2ccccc2Cl)N1c1ccccc1Cl)NC1C2CC3CC(C2)CC1C3 (stereo not shown) [Compound A12]
